Earlier results as cited in patent US20060147527A1, “Controlled release preparations comprising tramadol and topiramate” (CILAG AG, priority 2002, published 2006).

System: Chung model of post-nerve constriction injury
Settings: each drug alone

| Structure (SMILES) | maximal effect reached as the dose is escalated [% MPE] |
| --- | --- |
| COc1cccc(C2(O)CCCCC2CN(C)C)c1 (single isomer, unassigned) [tramadol, (1R,2R or 1S,2S)-2-[(dimethylamino)methyl]-1-(3-methoxyphenyl)-cyclohexanol] | 100 |
| CC1(C)O[C@@H]2[C@@H](CO[C@@]3(COS(N)(=O)=O)OC(C)(C)O[C@@H]23)O1 [topiramate, 2,3:4,5-bis-O-(1-methylethylidene)-β-D-fructopyranose sulfamate] | 100 |
